Measurements: patent US4570006A, “Amidine compound, process for producing same and anti-complement agent comprising same” (Torii & Co. Ltd., priority 1981, dated 1986)

How the values were obtained:
complement = assay: Inhibition of complement mediated hemolysis; format: cell-based
Experimental: The complement mediated hemolysis is widely used as a means to determine the titration of complement. The principle of this method is based on the fact that hemolysis if caused by the activation of complement, when the latter is added to a complex (immune complex) of erythrocytes and the antibody thereof. The degree of hemolysis varies in proportion to the amount of complement added. Therefore, when a known amount of complement admixed with a Cl esterase inhibitor is used, the hemolysis must be suppressed in proportion to the inhibitory activity.
The anti-Cl esterase (Clr, Cls) activity was determined according to the method of Okamura et al. [K. Okamura, M. Muramatsu and B. Fujii, Biochem. Biophys. […] The figures in Table 2 have the following meanings: […]

Clr = molecular target: T1, Clr (Homo sapiens, UniProt P00736); assay: Anti-Cl esterase activity, Clr (AAME hydrolysis); format: biochemical; conditions: hydrolysis of AAME; read-out: Anti-Cl activity, Clr (ID50)
T1 sequence (P00736 464-705 limits assumed): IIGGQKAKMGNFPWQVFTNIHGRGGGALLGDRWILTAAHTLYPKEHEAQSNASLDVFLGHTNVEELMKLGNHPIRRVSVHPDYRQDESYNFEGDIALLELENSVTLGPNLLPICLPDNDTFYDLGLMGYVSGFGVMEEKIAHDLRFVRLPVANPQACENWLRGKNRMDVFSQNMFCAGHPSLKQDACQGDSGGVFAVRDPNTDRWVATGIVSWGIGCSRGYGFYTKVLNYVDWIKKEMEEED
T1 sequence (P00736 18-463 limits assumed): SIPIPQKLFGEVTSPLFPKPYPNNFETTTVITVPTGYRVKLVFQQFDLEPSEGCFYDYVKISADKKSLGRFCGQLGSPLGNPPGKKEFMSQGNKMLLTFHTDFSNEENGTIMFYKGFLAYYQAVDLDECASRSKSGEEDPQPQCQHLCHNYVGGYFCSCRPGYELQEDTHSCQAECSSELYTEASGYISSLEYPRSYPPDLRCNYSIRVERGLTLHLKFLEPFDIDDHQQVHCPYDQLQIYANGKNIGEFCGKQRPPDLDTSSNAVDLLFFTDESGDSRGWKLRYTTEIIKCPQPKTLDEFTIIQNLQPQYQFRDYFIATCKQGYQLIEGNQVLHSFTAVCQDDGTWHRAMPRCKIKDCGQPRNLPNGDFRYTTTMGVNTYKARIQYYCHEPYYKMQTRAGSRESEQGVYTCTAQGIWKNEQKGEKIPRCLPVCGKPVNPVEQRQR
Experimental: The anti-Cl esterase ([…]) activity was determined according to the method of Okamura et al. [K. Okamura, M. Muramatsu and B. Fujii, Biochem. Biophys.

Row | SMILES | Inhibition of complement mediated hemolysis (%) (complement; compound at 1 × 10^-4) | Inhibition of complement mediated hemolysis (%) (complement; compound at 1 × 10^-5) | Inhibition of complement mediated hemolysis (%) (complement; compound at 1 × 10^-6) | Inhibition of complement mediated hemolysis (%) (complement; compound at 1 × 10^-7) | IC50 (Clr)
1 | COc1cc(C(=N)N)ccc1OC(=O)CC(C)C [Compound 3, 4-amidino-2-methoxyphenyl isovalerate] | 44.4% | 5.0% | 18.0% | 0% | 
2 | CCCCCCC(=O)Oc1ccc(C(=N)N)cc1C(=O)c1ccccc1 [Compound 4] | 95.0% | 67.2% | 8.7% | 0% | 
3 | COc1cc(C(=N)N)ccc1OC(=O)C1CCCCC1 [Compound 9] |  | 16.2% | 2.5% | 0% | 
4 | N=C(N)NCCCCCC(=O)Oc1ccc(C(=N)N)cc1C(=O)c1ccccc1 [Compound 15] | 98.8% | 81.7% | 12.7% | 0% | 
5 | COc1cc(C(=N)N)ccc1OC(=O)CCc1ccccc1 [Compound 32, 4-amidino-2-methoxyphenyl 3-phenylpropionate] | 63.9% | 97.5% | 7.1% | 0% | 
6 | Cc1cccc(C(=O)Oc2ccc(C(=N)N)cc2[N+](=O)[O-])c1 [Compound 36] | 100% | 100% | 100% | 90.4% | 
7 | CC(C)Cc1ccc(C(C)C(=O)Oc2ccc(C(=N)N)cc2C(=O)c2ccccc2)cc1 (stereo not drawn) [Compound 40] | 87.5% | 68.1% | 7.8% | 2.0% | 
8 | COc1ccccc1C(=O)Oc1ccc(C(=N)N)cc1C(=O)c1ccccc1 [Compound 41] | 66.7% | 9.3% | 0% | 0% | 
9 | COc1cccc(CC(=O)Oc2ccc(C(=N)N)cc2OC)c1 [Compound 43] | 95.0% | 50.4% | 3.7% | 0% | 
10 | CC(=O)c1ccc(C(=O)Oc2ccc(C(=N)N)cc2C(=O)c2ccccc2)cc1 [Compound 53] | 87.5% | 25.2% |  | 3.5% | 
11 | CC(=O)Oc1ccc(CCC(=O)Oc2ccc(C(=N)N)cc2C(=O)c2ccccc2)cc1 [Compound 55, 4-amidino-2-benzoylphenyl 3-(4-acetyloxy)phenylpropionate] | 100% | 96.9% | 60.8% | 3.5% | 
12 | N=C(N)c1ccc(OC(=O)c2ccc(CNC(=O)OCc3ccccc3)cc2)c(C(=O)c2ccccc2)c1 [Compound 63] | 100% | 100% | 98.0% | 94.5% | 
13 | N=C(N)c1ccc(OC(=O)c2ccc(CN)cc2)c(C(=O)c2ccccc2)c1 [Compound 64] | 100% | 100% | 97.1% | 75.7% | 
14 | COc1cc(C(=N)N)ccc1OC(=O)CCCc1ccc(N)cc1 [Compound 65, 4-amidino-2-methoxyphenyl 4-(4-aminophenyl)butyrate] | 81.7% | 9.8% | 0% | 0% | 
15 | N=C(N)c1ccc(OC(=O)c2ccc(S(N)(=O)=O)cc2)c(C(=O)c2ccccc2)c1 [Compound 67] | 99.2% | 99.2% | 96.9% | 57.5% | 
16 | N=C(N)c1ccc(OC(=O)c2ccc(S(N)(=O)=O)cc2)c([N+](=O)[O-])c1 [Compound 68] | 100% | 92.9% | 50.6% | 5.8% | 
17 | N=C(N)Nc1ccc(C(=O)Nc2cc(C(=N)N)ccc2OC(=O)c2ccc(NC(=N)N)cc2)cc1 [Compound 73, 4-amidino-2-(4-guanidinobenzoylamino)phenyl 4-guanidinobenzoate] | 100% | 100% | 89.9% | 46.1% | 
18 | CN(C(=N)N)c1ccc(C(=O)Oc2ccc(C(=N)N)cc2C(=O)c2ccccc2)cc1 [Compound 78] | 97.4% | 58.8% | 7.0% | 0% | > 10 µM
19 | CNC(=S)Nc1ccc(C(=O)Oc2ccc(C(=N)N)cc2C(=O)c2ccccc2)cc1 [Compound 79] | 95.1% | 96.8% | 81.7% | 48.1% | > 10 µM
20 | CC(C(=O)Oc1ccc(C(=N)N)cc1C(=O)c1ccccc1)c1ccc(Cl)cc1 (stereo not drawn) [Compound 86] | 100% | 97.1% | 53.6% | 11.0% | 
21 | CC(=O)N[C@@H](CC(C)C)C(=O)N[C@@H](CC(C)C)C(=O)N[C@H](C=O)CCCNC(=N)N [Leupeptin, reference compound] | 97% | 52% | 0% | 0% | 
